Reference: patent US20200360471A1, “METHODS OF TREATING AND PREVENTING VIRAL INFECTIONS” (priority 2017, published 2020)
Like-named read-outs stand apart in the source and are kept apart here. Peptide text beside a SMILES is read from it.

What was measured:
[1] = tested on: HPVS PsV; details: read-out: IC50, inhibition of uptake of HPVS PsV; PsV 1:6000 dilution, 293TT cells
Experimental: Pseudovirus (PsV) of HPVS was prepared using method described by Buck et al, (Journal of Virology, January 2004; 751-757) and used as a model HPV in this study. The PsV stocks were prepared by co-transfecting human 293TT cells with HPVS viral plasmid p5Shell containing codon-modified papillomavirus capsid genes for L1 and L2 proteins, and pcLucF reporter plasmid containing the luciferase gene for detecting viral infection. The cell lysates containing the capsidized virus was used as the PsV stock. Optimal PsV dilution factor was determined based on the luciferase activity in 293TT cells infected with serially diluted HPVS PsV.
Data were collected on a Molecular Devices Flexstation 3 Microplate Reader using Softmax Pro v5.4.4. Data analysis was performed on Prism software using four parameter logistic model. […] Furin Inhibitor I was used as a positive control for HPVS PsV inhibition since it blocks the viral entry into host cells.
Two runs were performed for each dilution level.

[2] = tested on: external anogenital warts; format: in vivo, human
Experimental: A randomized, double-blind, placebo-controlled study to assess the pharmacodynamics, safety/tolerability and efficacy of omiganan in patients with external anogenital warts was conducted. 24 patients aged 18 years or older with clinically diagnosed external anogenital warts were enrolled. […] The gel was applied topically once daily for 12 weeks. The treatment period was from day 0 till day 84. During the treatment period subjects visited the clinical unit on days 0, 14, 28, 56 and 84. A fixed dose of omiganan or placebo was applied once daily. Two follow up visits were scheduled on days 126 and 168. During study execution, vital signs were measured on days 0, 14, 28, 56 and 84. Pharmacodynamic assessments were performed on day 0 (pre-dose), 14, 28, 56 and 84, respectively. Punch biopsies were performed at the screening and on days 56 and 168. Subjects were dosed 84 consecutive days with approximately 24 hours between each treatment. Omiganan or placebo (vehicle) was administered to the subjects. […] Subjects were instructed to apply a fingertip unit of gel (approximately […]). Omiganan is prepared as a lyophilized powder of the pentahydrochloride salt. The molecular formula is C90H127N27O12. HCl*H2O. […] Any other therapy for external anogenital warts (topical treatment, laser therapy, cryotherapy, photodynamic therapy and surgical excision) was not allowed from 28 days prior to the first study drug administration, during the study and until the 3 month follow up assessment was completed. Wart count and wart clearance. The warts were counted at every study visit. FIGS. 18A and 18B show the change in value of the count of the target warts over time per treatment. […] Wart clearance was derived from the count of all warts present at baseline. In FIG. 19, the proportion of baseline lesions cleared is shown. […] Wart size. Wart size was measured during every visit. The change in mean of the long and short diameter, height and volume measured is presented in FIG. 21 along with the p-values.

[3] = tested on: IL-1β, IL-8; assay: Biomarkers (qPCR) in wart biopsies; format: in vivo, human; details: during the study period
Experimental: The treatment period was from day 0 till day 84. During the treatment period subjects visited the clinical unit on days 0, 14, 28, 56 and 84. A fixed dose of omiganan or placebo was applied once daily. Two follow up visits were scheduled on days 126 and 168. During study execution, vital signs were measured on days 0, 14, 28, 56 and 84. Pharmacodynamic assessments were performed on day 0 (pre-dose), 14, 28, 56 and 84, respectively. Punch biopsies were performed at the screening and on days 56 and 168. Subjects were dosed 84 consecutive days with approximately 24 hours between each treatment.
Biomarkers in biopsy. Biopsies were taken from biopsy wart 1 at screening, biopsy wart 2 at EOT and target wart at EOS. Biopsies were only taken when the warts were still visible.

[4] = tested on: imiquimod-induced inflammatory responses of the skin; assay: Topical omiganan and imiquimod in skin of healthy subjects; format: in vivo, human
Experimental: Sixteen (16) healthy subjects participated in the study. Pharmacodynamic effects were assessed on Day 1, 2, 3, 4, 5 and 14 (EOS) by clinical assessment of the lesion on-site with visual erythema grading by a blinded investigator, erythema by colorimetry, erythema by multispectral imaging, erythema by 2D photography analysis, perfusion by laser speckle contrast imaging (LSCI), skin surface biomarkers by transdermal analysis patch (TAP) and local biopsies biomarkers. […] 3 mm skin punch biopsies were collected at day 5 for qPCR mRNA expression, histology and immunohistochemistry. Enhanced inflammation and immune system activation was observed when OMN was applied to 48 hours IMQ primed skin. This was most pronounced for markers IFNγ, IL-10, IL-6, MX1 and MXA (FIGS. 39-43, respectively) indicating an increased anti-viral response. Further, this activity is correlated with cellular infiltrates of CD4+, CD8+ and CD14+ cells (FIGS. 44-47).

[5] = omiganan applied after imiquimod application

CC[C@H](C)[C@H](N)C(=O)N[C@@H](CC(C)C)C(=O)N[C@@H](CCCNC(=N)N)C(=O)N[C@@H](Cc1c[nH]c2ccccc12)C(=O)N1CCC[C@H]1C(=O)N[C@@H](Cc1c[nH]c2ccccc12)C(=O)N[C@@H](Cc1c[nH]c2ccccc12)C(=O)N1CCC[C@H]1C(=O)N[C@@H](Cc1c[nH]c2ccccc12)C(=O)N[C@@H](CCCNC(=N)N)C(=O)N[C@@H](CCCNC(=N)N)C(=O)N[C@@H](CCCCN)C(N)=O [omiganan, I L R W P W W P W R R K] (H-ILRWPWWPWRRK-NH2)
IC50 [1]: 23.5 to 29.1 µM
proportion of all lesions cleared (printed: mean of baseline warts cleared) ([2]; EOS, p-value=0.2891 vs vehicle): 23.82%
mean of baseline warts cleared ([2]; EOS, p-value=0.3918 vs vehicle): 29.3%
mean of all warts cleared ([2]; EOT, p-value=0.1879 vs vehicle): 11.4%
mean of baseline warts cleared ([2]; EOT, p-value=0.2500 vs vehicle): 15.5%
mean volume of the target warts compared to vehicle ([2]; at EOT visit, p-value=0.0367): significantly lower
volume of the warts compared to vehicle ([2]; entire study period (pre-dose till EOS), p=0.0655): trend to reduction
adverse events ([2]; human, in vivo): few adverse events
safety of administration to patients with external anogenital warts ([2]; human, in vivo): safe
height of the warts compared to vehicle ([2]; p=0.0543): clear trend in decrease
wart count ([2]; summary of study): trend in reduction
photography assessment of anogenital warts ([2]; two subjects treated with omiganan): visible wart size reduction or even clearance
amount of IL-1β in biopsies [3]: increased
amount of IL-8 in biopsies [3]: increased
relation of this activity to cellular infiltrates of CD4+, CD8+ and CD14+ cells ([4]; applied to 48 hours IMQ primed skin, biopsies day 5): correlated
inflammation and immune system activation (most pronounced for IFNγ, IL-10, IL-6, MX1, MXA) ([4]; applied to 48 hours IMQ primed skin, biopsies day 5, qPCR): Enhanced
basal blood flow [4, 5]: enhanced the activity of imiquimod
erythema [4, 5]: enhanced the activity of imiquimod
